Measurements from patent publication US8104331B2, “Method and device to extract components contained in a fluid” (Noab Biodiscoveries Inc., priority 2006, dated 2012).

What was measured:
[1] = In vivo SPME sampling of whole blood for pharmacokinetics after i.v. bolus diazepam; settings: rat; for AUMC0-inf / AUMC0-tlast: metabolite, SPME (blood, equilibrium calibration), i.v. bolus 0.5 mg/kg diazepam, noncompartmental; for AUMC: SPME/blood, 2-compartment analysis
Procedure: (§1) Animal Experiments: Male Sprague-Dawley rats (Charles River Labs, St. Constant, PQ) with an average weight of 300 g are acclimatized to their new environment for a minimum of 5 days prior to surgery. […] The catheters are plugged with removable metal plugs at the free end and then exteriorized by threading them under the skin and through a small incision at the nape of the neck. Animals are allowed to recover overnight prior to dosing. […] In vivo mouse experiments are conducted with conscious male Swiss Webster mice implanted with a carotid artery catheter. All procedures followed have been reviewed by the NoAb BioDiscoveries Inc. animal care committee and were performed in accordance with the principles of the Canadian Council on Animal Care (CCAC).
A device to extract components is attached to the carotid artery catheter prior to dosing each rat or mouse. To insert the probes, the tip of the SPME probe needle is used to pierce the septum of the device. The length of the fiber or wire of the probe is chosen so that the coated wire is completely exposed to the blood flow when the plunger is fully depressed. Before use, the SPME probe is sterilized in an autoclave at 121° C. and 15 psi for about 30 minutes. For validation purposes, blood draws are taken from the same interface after each sampling with SPME. All the probes are for single use.
(§2) For each time point (5, 15, 30, 45, 60, 75, 120, 180, 240 and 360 min), the probes are in place for about two (2) minutes before the stated analysis time and blood draws are performed immediately after removing the probes. After the two (2) minute extraction time, the probes are removed, rinsed with water, and stored at −20° C. until the next day, when analysis is performed. […] For SPME calibration, rat whole blood is spiked with appropriate amounts of benzodiazepines and incubated with 10% CO2 atmosphere. The analytical range is 3-750 ng/mL.
(§3) Areas under the plasma concentration versus time curves (AUCs) represent the areas under the curve from the time of dosing and extrapolated to infinity. […] The total body clearance (CL) is estimated as: Dose/AUC. Mean residence times (MRT) are calculated as: AUMC/AUC, where AUMC denotes the area under the first moment curve. The steady-state volume of distribution (Vss) is calculated as: CL*MRT.
(§4) AUCs are calculated by the linear/log-linear trapezoidal rule. AUCs represent the areas under the curve from the time of dosing: (1) to the time (tlast) of the last measurable concentration, Clast (AUC0-tlast) and, (2) extrapolated to infinity (AUC0-inf). AUC0-inf is estimated by the addition of AUC0-tlast and Clast/k, where k (or λz) represents the terminal elimination rate constant. K is estimated by weighted (1/Y^2) regression analysis of at least 4 time points from the terminal (log-linear) portion of the concentration versus time curve.
In vivo experiments are conducted with conscious male Sprague-Dawley rats implanted with jugular vein and carotid artery catheters. The catheters are plugged and exteriorized at the nape of the neck. Prior to dosing, the opening of the device is connected to the carotid artery catheter. The channel of the device is either connected to the jugular vein catheter or is connected to a syringe pump. Connecting the device to the jugular vein catheter allowed for automatic return of the arterial blood, using the pumping action of the heart of the animal. Connecting the device to a syringe allows for precise control of the blood flow rate through the device. The device and the associated tubing are kept warm at 38° C.
At each sampling time point, a sterile SPME device is placed through the septum into the interface so that only the coated portion of the fiber is exposed to the flowing blood. Blood flow through the device is either allowed to run freely via recirculation to the jugular vein or is induced by the push/pull action of a syringe attached to the channel.

[2] = Conventional plasma sampling and analysis for pharmacokinetics after i.v. bolus diazepam; settings: rat; for AUMC0-inf / AUMC0-tlast: metabolite, i.v. bolus 0.5 mg/kg diazepam, noncompartmental; for AUMC: 2-compartment analysis
Procedure: as §1, §2
Conventional Plasma Sampling and Analysis: In addition to SPME sampling, 0.2 mL of blood is withdrawn from the interface at each time point. Plasma is isolated by centrifugation at 2500 rpm for 10 minutes and frozen at −20° C. in 2 mL cryovials (Wheaton Science Products, Millville, N.J.) until analysis. For analysis, 0.05 mL of plasma is mixed with 0.25 mL acetonitrile containing 25 ng/mL lorazepam as internal standard in conical centrifuge vials. After vortex mixing (2400 rpm, 5 minutes) and centrifugation (14000 rpm, 7 minutes), 0.2 mL of the supernatant is transferred to a 96-well plate and evaporated to dryness under flowing nitrogen. The residue is dissolved in 0.1 mL acetonitrile/water (75:25) on a shaking bed (150 rpm). Twenty μL is injected for analysis using the same chromatographic conditions as for the analysis of SPME probes. The linear range is 0.1-1000 ng/mL.
as §3, §4
For validation of the in vivo sampling method taught by the applicant's teachings, blood is sampled after each probe extraction, and plasma is isolated by centrifugation.

Row | SMILES | AUMC0-inf [1] [h^2*ng/mL] | AUMC0-tlast [1] [h^2*ng/mL] | AUMC0-inf [2] [h^2*ng/mL] | AUMC0-tlast [2] [h^2*ng/mL] | AUMC ([1]; equilibrium calibration, diazepam 0.5 mg/kg i.v. bolus) [h^2*ng/mL] | AUMC ([1]; kinetic calibration, diazepam 1 mg/kg i.v. bolus) [h^2*ng/mL] | AUMC ([2]; equilibrium calibration study, diazepam 0.5 mg/kg i.v. bolus) [h^2*ng/mL] | AUMC ([2]; kinetic calibration study, diazepam 1 mg/kg i.v. bolus) [h^2*ng/mL]
1 | O=C1CN=C(c2ccccc2)c2cc(Cl)ccc2N1 [Nordiazepam, nordiazepam] | 50.0 | 7.86 | 16.5 | 6.38 | – | – | – | –
2 | O=C1Nc2ccc(Cl)cc2C(c2ccccc2)=NC1O (stereo not drawn) [Oxazepam, oxazepam] | 834 | 278 | 293 | 176 | – | – | – | –
3 | CN1C(=O)CN=C(c2ccccc2)c2cc(Cl)ccc21 [diazepam] | – | – | – | – | 527 | 741 | 319 | 1000
